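All cell lines were grown in 96-well plates and treated with compound for 48 hours. GI50: concentration for 50% inhibition of growth. TGI: concentration producing complete growth inhibition.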
How the values were obtained:
Experiment in all cases: growth of human tumour cells (NCI), 48 h
[1] = system: 786-0 renal
[2] = system: A498 renal
[3] = system: A549 NSCLC
[4] = system: ACHN renal
[5] = system: CAKI-1 renal
[6] = system: CCRF-CEM leukemia
[7] = system: COLO 205 colon
[8] = system: DU-145 prostate
[9] = system: EKVX NSCLC
[10] = system: HCC-2998 colon
[11] = system: HCT-15 colon
[12] = system: HL-60(TB) leukemia
[13] = system: HOP-62 NSCLC
[14] = system: HOP-92 NSCLC
[15] = system: HS 578T breast
[16] = system: HT29 colon
[17] = system: IGROV1 ovarian
[18] = system: K-562 leukemia
[19] = system: KM12 colon
[20] = system: LOX IMVI melanoma
[21] = system: M14 melanoma
[22] = system: MALME-3M melanoma
[23] = system: MCF7 breast
[24] = system: MDA-MB-231 breast
[25] = system: MDA-MB-435
[26] = system: MDA-MB-468 breast
[27] = system: MOLT-4 leukemia
[28] = system: NCI-H23 lung
[29] = system: NCI-H460 lung
[30] = system: NCI-H522 lung
[31] = system: NCI/ADR-RES ovarian
[32] = system: OVCAR-3 ovarian
[33] = system: OVCAR-4 ovarian
[34] = system: OVCAR-5 ovarian
[35] = system: OVCAR-8 ovarian
[36] = system: PC-3 prostate
[37] = system: RPMI-8226 leukemia
[38] = system: RXF 393 renal
[39] = system: SF-268 CNS
[40] = system: SF-295 CNS
[41] = system: SF-539 CNS
[42] = system: SK-MEL-2 melanoma
[43] = system: SK-MEL-28 melanoma
[44] = system: SK-MEL-5 melanoma
[45] = system: SK-OV-3 ovarian
[46] = system: SN12C renal
[47] = system: SNB-19 CNS
[48] = system: SNB-75 CNS
[49] = system: SR leukemia
[50] = system: SW-620 colon
[51] = system: T-47D breast
[52] = system: TK-10 renal
[53] = system: U251 CNS
[54] = system: UACC-257 melanoma
[55] = system: UACC-62 melanoma
[56] = system: UO-31 renal

`CCC[Se]C(=O)c1ccc(C(=O)[Se]CCC)s1` showed a GI50 [1] of 172 nM, a TGI [1] of 2250 nM and a GI50 [2] of 63.5 nM. The TGI [2] was 917 nM, the GI50 [3] was < 10 nM and the TGI [3] was 85 nM. For the same compound, the GI50 [4] was 110 nM, the TGI [4] was 1220 nM and the GI50 [5] was < 11.2 nM. It also gave a TGI [5] of 175 nM, a GI50 [6] of 1660 nM and a TGI [6] of 16100 nM. It also gave a GI50 [7] of 639 nM, a TGI [7] of 2100 nM and a GI50 [8] of 95.5 nM. For the same compound, the TGI [8] was 1300 nM, the GI50 [9] was < 24.6 nM and the TGI [9] was 82.1 nM. For the same compound, the GI50 [10] was 239 nM, the TGI [10] was 1840 nM and the GI50 [11] was 54.6 nM. The TGI [11] was 217 nM, the GI50 [12] was < 10 nM and the TGI [12] was 662 nM. The GI50 [13] was < 12 nM, the TGI [13] was 63.3 nM and the GI50 [14] was < 18.9 nM. For the same compound, the GI50 [15] was < 10 nM, the TGI [15] was 411 nM and the GI50 [16] was < 10 nM. For the same compound, the TGI [16] was 112 nM, the GI50 [17] was < 13.1 nM and the TGI [17] was 234 nM. The GI50 [18] was 41.4 nM, the TGI [18] was 21400 nM and the GI50 [19] was 27.6 nM. The TGI [19] was 1300 nM, the GI50 [20] was < 13.1 nM and the TGI [20] was < 34.6 nM. For the same compound, the GI50 [21] was < 10 nM, the TGI [21] was < 21.1 nM and the GI50 [22] was < 35.2 nM. For the same compound, the TGI [22] was 118 nM, the GI50 [23] was < 10 nM and the TGI [23] was 170 nM. The GI50 [24] was < 10 nM, the TGI [24] was < 20 nM and the GI50 [25] was < 10 nM. For the same compound, the TGI [25] was 19.9 nM, the GI50 [26] was < 18 nM and the TGI [26] was 75 nM. The GI50 [27] was < 10 nM, the TGI [27] was 5100 nM and the GI50 [28] was 19.7 nM. The TGI [28] was 114 nM, the GI50 [29] was < 10 nM and the TGI [29] was 10.4 nM. The GI50 [30] was 943 nM, the TGI [30] was 2770 nM and the GI50 [31] was < 10 nM. It also gave a GI50 [32] of 103 nM, a TGI [32] of 370 nM and a GI50 [33] of 2870 nM. The TGI [33] was 30000 nM, the GI50 [34] was < 16.2 nM and the TGI [34] was 455 nM. The GI50 [35] was < 10 nM, the TGI [35] was 45.7 nM and the GI50 [36] was 22.4 nM. It also gave a TGI [36] of 2890 nM, a GI50 [37] of 300 nM and a TGI [37] of 2000 nM. The GI50 [38] was < 10 nM, the TGI [38] was 64.4 nM and the GI50 [39] was < 11 nM. The TGI [39] was 67.5 nM, the GI50 [40] was < 14.4 nM and the TGI [40] was < 38.5 nM. For the same compound, the GI50 [41] was < 10.7 nM, the TGI [41] was < 21.8 nM and the GI50 [42] was 40.8 nM. The TGI [42] was 1140 nM, the GI50 [43] was < 10 nM and the TGI [43] was 29.4 nM. For the same compound, the GI50 [44] was < 49.1 nM, the TGI [44] was 159 nM and the GI50 [45] was 39.5 nM. The TGI [45] was 837 nM, the GI50 [46] was < 10 nM and the GI50 [47] was < 10 nM. For the same compound, the TGI [47] was 131 nM, the GI50 [48] was < 33.6 nM and the TGI [48] was 3070 nM. For the same compound, the GI50 [49] was 38.6 nM, the TGI [49] was 10300 nM and the GI50 [50] was 57.3 nM. It also gave a TGI [50] of 320 nM, a GI50 [51] of 1030 nM and a TGI [51] of 10700 nM. For the same compound, the GI50 [52] was 121 nM, the TGI [52] was 1320 nM and the GI50 [53] was < 10.6 nM. For the same compound, the TGI [53] was 139 nM, the GI50 [54] was 58.7 nM and the TGI [54] was 1160 nM. For the same compound, the GI50 [55] was 22.5 nM, the TGI [55] was 556 nM and the GI50 [56] was < 20 nM. It also gave a TGI [56] of 341 nM.
